# Results as given in article PMC11722313 (bioRxiv, 2025).
# Tests used:
# IDE [1] = conditions: HDX-MS; ref Zhang et al, 2018; cited from earlier work
# [2] = molecular target: IDE R668A (human insulin degrading enzyme, cysteine-free) (Homo sapiens, UniProt P14735, C110L/C171S/C178A/C257V/C414L/C573N/C590S/C789S/C812A/C819A/C904S/C966N/C974A/R668A); experiment: Competition assay: inhibition of MCA-[…]; format: biochemical; conditions: 5 nM IDE R668A, 5 μM MCA-RPPGFSAFK(Dnp), pH 7.5, 37° C; average of three technical replicates
# IDE R668A (human insulin degrading enzyme, cysteine-free), sequence (P14735 42-1019 C110L/C171S/C178A/C257V/C414L/C573N/C590S/R668A/C789S/C812A/C819A/C904S/C966N/C974A limits assumed): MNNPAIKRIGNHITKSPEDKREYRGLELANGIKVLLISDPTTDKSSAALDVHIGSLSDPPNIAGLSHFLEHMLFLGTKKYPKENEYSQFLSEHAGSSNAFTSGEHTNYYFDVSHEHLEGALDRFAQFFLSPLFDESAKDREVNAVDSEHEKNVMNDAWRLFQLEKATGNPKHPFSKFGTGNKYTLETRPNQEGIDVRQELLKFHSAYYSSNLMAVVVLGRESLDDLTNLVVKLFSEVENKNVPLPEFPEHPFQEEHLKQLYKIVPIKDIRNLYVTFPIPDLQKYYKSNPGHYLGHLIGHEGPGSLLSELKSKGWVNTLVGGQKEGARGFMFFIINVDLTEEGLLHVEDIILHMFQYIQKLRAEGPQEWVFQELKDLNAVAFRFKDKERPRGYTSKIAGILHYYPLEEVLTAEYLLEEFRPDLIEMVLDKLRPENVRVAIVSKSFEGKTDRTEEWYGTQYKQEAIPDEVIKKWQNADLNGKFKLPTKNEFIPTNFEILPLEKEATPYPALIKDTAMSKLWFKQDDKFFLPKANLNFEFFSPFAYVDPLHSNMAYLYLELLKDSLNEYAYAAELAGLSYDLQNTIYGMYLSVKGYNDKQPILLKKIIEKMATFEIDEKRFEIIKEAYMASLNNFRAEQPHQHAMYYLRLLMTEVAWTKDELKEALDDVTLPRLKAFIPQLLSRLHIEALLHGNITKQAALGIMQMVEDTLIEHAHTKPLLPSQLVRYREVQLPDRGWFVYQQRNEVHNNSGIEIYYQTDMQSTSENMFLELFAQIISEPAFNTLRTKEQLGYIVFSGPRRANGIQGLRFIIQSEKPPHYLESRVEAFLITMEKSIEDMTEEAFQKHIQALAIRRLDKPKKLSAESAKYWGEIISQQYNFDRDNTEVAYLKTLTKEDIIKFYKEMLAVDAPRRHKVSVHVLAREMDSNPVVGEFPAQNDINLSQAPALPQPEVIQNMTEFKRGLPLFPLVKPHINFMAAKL
# [3] = SEC-SAXS of IDE constructs; format: physicochemical, human; conditions: Guinier method
# [4] = Size-exclusion chromatography elution of IDE constructs; format: physicochemical, human; conditions: S200 SEC column
# IDE [5] = experiment: Cryo-EM of IDE in the presence of sub-saturating insulin; parameters: species or system human
# IDE [6] = conditions: time-resolved SAXS; ref Zhang et al., 2018; cited from earlier work
# [7] = IDE:insulin 2:1, compared with previously reported O and pO states
molecule,measurement,setting,value
O=C(C[C@@H](Cc1ccc2ccccc2c1)n1cc(CNC(=O)c2ccc(F)cc2)nn1)NO [BDM-44768],deuterium exchange of the R668-containing peptide vs apo-IDE,IDE [1],the peptide containing R668 shows reduced deuterium exchange relative to apo-IDE
"Aβ(1–40): amyloid-β 1–40, an unstructured substrate of IDE","competition of MCA-RPPGFSAFK(Dnp) degradation, IDE R668A (in words)",[2],did not exhibit a dose-dependent response to the presence of Aβ and the data could not be fit to any kinetic equation
R668A: IDE carrying a R668 to alanine (R668A) point mutation,Rg (Guinier),[3],54.7 +/− 0.4 Å
same,SEC elution relative to WT IDE,[4],eluted slightly earlier than WT IDE
"insulin: IDE substrate; purchased from MP Biomedicals (#0219390010) for enzymatic assays, SIGMA (91077C) for cryo-EM",closing of pO and O subunits in presence of insulin (D1-D4 COM distance),IDE [5]; [7],3–5 Å
same,reduction of D1-D2-D3-D4 COM dihedral in presence of insulin,IDE [5]; [7],5–10 °
same,dominant IDE state with sub-saturating insulin,"IDE [5]; IDE:insulin molar ratio 2:1, cryo-EM",the pC/pC was still found to be dominant
same,time constant tau for the insulin induced open to closed transition,IDE [6],~ 100 milliseconds
